Measurements published in US7879881B2, “Piperidinyl compounds that selectively bind integrins” (Janssen Pharmaceutica NV, priority 2002, dated 2011).

Assays:
Human αvβ3 = biological target: T1, Human αvβ3 (Homo sapiens, UniProt P05106+P06756); assay: In Vitro Solid Phase Purified αvβ3 Binding Assay (vitronectin/αvβ3); details: vitronectin binding to immobilized purified human αvβ3; mean ± spread; read-out: αvβ3IC50
T1 construct: purchased Chemicon International Inc., Temecula, Calif
Method in brief: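 Purified human αvβ3 immobilized at 1 μg/ml in Tris buffer with Ca, Mg and Mn; compounds competed with 2 nM vitronectin for 3 h at 37 °C. Bound vitronectin detected by anti-vitronectin antibody and peroxidase ABC, absorbance at 490 nm.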

GP IIb/IIIa = GP IIb/IIIa (Homo sapiens, UniProt P05106+P08514); assay: In Vitro Solid Phase Purified GP IIb/IIIa Binding Assay (biotinylated fibrinogen); details: biotinylated fibrinogen binding to immobilized purified GP IIb/IIIa; mean ± spread; read-out: αIIbβ3 IC50
Sequence of GP IIb/IIIa (P08514 32-887 limits assumed): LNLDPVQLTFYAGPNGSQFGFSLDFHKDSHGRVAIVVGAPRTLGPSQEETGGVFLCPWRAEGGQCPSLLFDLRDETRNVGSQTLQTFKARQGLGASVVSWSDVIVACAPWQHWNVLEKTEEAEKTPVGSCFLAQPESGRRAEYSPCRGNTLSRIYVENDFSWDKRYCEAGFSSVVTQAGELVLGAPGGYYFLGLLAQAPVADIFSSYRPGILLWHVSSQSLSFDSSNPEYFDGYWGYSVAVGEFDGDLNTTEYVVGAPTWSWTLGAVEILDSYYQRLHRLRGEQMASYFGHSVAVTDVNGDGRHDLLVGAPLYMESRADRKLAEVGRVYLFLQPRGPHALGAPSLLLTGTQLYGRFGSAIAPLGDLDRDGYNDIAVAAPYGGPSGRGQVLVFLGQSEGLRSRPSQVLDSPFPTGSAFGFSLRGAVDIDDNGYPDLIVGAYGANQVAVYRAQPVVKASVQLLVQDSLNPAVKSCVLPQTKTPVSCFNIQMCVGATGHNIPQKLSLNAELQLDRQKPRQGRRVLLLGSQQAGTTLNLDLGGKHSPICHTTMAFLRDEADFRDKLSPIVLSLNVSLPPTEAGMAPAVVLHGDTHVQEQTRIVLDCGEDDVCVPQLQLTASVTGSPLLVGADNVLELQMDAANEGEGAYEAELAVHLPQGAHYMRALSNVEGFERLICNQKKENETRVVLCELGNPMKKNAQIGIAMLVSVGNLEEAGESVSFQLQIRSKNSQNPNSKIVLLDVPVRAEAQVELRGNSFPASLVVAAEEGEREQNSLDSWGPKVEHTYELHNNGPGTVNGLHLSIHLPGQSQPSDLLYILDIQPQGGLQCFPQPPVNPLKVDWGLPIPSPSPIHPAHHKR
Sequence of GP IIb/IIIa (P08514 891-1039 partner limits assumed): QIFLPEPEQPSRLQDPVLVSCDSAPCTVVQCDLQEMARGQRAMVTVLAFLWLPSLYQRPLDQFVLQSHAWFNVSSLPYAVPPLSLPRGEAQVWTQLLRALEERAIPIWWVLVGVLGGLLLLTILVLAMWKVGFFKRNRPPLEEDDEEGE
Sequence of GP IIb/IIIa (P05106 27-788): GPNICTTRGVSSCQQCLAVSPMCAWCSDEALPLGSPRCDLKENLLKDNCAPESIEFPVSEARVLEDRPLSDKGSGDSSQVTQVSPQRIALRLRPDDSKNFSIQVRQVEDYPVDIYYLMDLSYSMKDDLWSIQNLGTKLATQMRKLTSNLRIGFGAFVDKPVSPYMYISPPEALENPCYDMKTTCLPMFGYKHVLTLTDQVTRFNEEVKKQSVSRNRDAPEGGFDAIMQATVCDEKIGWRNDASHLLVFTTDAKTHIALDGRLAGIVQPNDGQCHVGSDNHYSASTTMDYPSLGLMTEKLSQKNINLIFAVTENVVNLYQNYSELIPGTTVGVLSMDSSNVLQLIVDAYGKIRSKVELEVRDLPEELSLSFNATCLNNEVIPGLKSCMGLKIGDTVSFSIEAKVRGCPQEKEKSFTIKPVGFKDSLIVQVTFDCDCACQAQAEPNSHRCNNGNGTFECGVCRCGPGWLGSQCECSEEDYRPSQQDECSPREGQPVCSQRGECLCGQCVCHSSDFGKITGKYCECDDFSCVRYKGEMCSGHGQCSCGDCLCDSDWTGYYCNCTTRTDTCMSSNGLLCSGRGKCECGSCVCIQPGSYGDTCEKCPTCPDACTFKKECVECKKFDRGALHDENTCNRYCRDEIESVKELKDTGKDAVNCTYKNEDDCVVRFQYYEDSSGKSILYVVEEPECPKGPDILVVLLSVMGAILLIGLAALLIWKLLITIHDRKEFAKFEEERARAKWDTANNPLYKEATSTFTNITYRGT
Method in brief: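 Purified GP IIb/IIIa coated overnight at 4° C, blocked with 5% BSA, then incubated with test compound and biotinylated fibrinogen for 2-4 h at RT in modified Tyrodes buffer. Bound fibrinogen detected with avidin-biotin HRP complex and o-phenylenediamine/H2O2 (citrate/phosphate pH 5.3), stopped with 2 N H2SO4.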

human purified αVβ5 = biological target: T2, human purified αVβ5 (Homo sapiens, UniProt P06756+P18084); assay: In Vitro Solid Phase Purified αcβ5 Binding Assay (vitronectin/αVβ5); details: vitronectin binding to immobilized purified human αVβ5; mean ± spread; read-out: αvβ5 IC50
T2 construct: purchased Chemicon International, Inc
T2 sequence (P06756 31-889 limits assumed): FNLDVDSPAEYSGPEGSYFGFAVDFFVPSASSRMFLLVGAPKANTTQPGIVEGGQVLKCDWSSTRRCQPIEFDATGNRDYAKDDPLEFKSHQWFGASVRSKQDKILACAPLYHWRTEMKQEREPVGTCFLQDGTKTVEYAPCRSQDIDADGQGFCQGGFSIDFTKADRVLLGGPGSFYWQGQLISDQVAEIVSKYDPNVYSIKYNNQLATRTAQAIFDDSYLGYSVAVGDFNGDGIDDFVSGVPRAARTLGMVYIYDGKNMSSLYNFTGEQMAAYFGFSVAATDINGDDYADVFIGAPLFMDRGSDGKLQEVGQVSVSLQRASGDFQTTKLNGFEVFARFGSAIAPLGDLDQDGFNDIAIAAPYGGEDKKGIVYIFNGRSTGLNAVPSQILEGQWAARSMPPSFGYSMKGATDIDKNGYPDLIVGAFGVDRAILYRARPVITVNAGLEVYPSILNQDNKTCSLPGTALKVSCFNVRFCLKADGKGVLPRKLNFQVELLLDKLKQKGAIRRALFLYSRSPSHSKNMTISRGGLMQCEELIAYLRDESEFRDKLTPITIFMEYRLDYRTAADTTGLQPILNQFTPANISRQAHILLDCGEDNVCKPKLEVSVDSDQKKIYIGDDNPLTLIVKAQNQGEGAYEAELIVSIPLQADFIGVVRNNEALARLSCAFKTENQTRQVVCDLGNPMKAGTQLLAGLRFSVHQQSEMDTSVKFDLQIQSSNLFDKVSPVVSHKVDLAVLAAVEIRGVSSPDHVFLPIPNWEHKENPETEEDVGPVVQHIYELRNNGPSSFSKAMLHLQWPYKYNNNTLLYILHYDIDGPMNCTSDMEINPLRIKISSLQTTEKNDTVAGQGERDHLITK
T2 sequence (P06756 891-1048 partner limits assumed): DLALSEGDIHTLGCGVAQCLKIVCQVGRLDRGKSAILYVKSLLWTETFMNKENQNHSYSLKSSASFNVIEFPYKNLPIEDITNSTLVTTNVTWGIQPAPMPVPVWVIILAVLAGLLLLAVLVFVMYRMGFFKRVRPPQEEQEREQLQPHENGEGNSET
T2 sequence (P18084 24-799): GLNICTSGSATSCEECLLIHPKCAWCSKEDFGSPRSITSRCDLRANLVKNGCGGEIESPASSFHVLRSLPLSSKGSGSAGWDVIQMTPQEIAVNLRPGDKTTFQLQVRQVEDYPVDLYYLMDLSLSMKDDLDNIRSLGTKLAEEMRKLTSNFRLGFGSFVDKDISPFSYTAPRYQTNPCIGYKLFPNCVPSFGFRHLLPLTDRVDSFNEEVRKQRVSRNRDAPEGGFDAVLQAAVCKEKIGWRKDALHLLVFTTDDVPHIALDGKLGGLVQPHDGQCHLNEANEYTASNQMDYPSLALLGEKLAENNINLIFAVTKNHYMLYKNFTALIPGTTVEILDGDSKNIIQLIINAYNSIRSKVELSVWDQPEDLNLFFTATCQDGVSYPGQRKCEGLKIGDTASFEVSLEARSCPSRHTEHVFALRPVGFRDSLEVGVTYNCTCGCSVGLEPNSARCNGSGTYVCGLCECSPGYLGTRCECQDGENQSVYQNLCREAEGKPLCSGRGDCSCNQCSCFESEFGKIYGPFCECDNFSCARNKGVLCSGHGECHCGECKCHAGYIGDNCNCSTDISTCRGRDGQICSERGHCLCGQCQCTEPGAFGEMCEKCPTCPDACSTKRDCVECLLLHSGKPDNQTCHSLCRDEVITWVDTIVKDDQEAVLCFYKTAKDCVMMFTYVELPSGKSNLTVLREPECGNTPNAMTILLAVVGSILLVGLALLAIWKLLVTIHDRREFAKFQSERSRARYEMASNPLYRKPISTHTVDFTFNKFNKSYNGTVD
Method in brief: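 Purified human integrin immobilized at 1 μg/ml in Tris buffer with Ca2+, Mg2+, Mn2+ and NaCl, then BSA-blocked. Compounds added just before 2 nM vitronectin, 3 h at 37 °C. Bound vitronectin detected by anti-vitronectin antibody with biotin/peroxidase (ABC) detection at 490 nm.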

T1 sequence (P06756 31-889 limits assumed): as the sequence (P06756 31-889 limits assumed) above
T1 sequence (P06756 891-1048 partner limits assumed): as the sequence (P06756 891-1048 partner limits assumed) above
T1 sequence (P05106 27-788): as the sequence (P05106 27-788) above

Structure (SMILES) | IC50 (Human αvβ3) [µM] | IC50 (GP IIb/IIIa) [µM] | IC50 (human purified αVβ5) [µM]
O=C(O)CC(CC1CCN(C(=O)CCc2ccc3c(n2)NCCC3)CC1)c1cc(F)cc(F)c1 (stereo not drawn) [Cpd 37, β-(3,5-difluorophenyl)-1-[1-oxo-3-(5,6,7,8-tetrahydro-1,8-naphthyridin-2-yl)propyl]-4-piperidinebutanoic acid] | 0.0158 ± 0.0043 | > 50 | 0.0897 ± 0.0116
O=C(O)CC(CC1CCN(C(=O)CCCc2ccc3c(n2)NCCC3)CC1)c1cc(F)cc(F)c1 (stereo not drawn) [Cpd 38, β-(3,5-difluorophenyl)-1-[1-oxo-4-(5,6,7,8-tetrahydro-1,8-naphthyridin-2-yl)butyl]-4-piperidinebutanoic acid] | 0.484 | > 50 | 2.11
O=C(O)CC(CC1CCN(C(=O)CCc2ccc3c(n2)NCCC3)CC1)c1cccc(C(F)(F)F)c1 (stereo not drawn) [Cpd 39, 1-[1-oxo-3-(5,6,7,8-tetrahydro-1,8-naphthyridin-2-yl)propyl]-β-[3-(trifluoromethyl)phenyl]-4-piperidinebutanoic acid] | 0.0066 ± 0.0018 | > 50 | 0.0287 ± 0.0133
O=C(O)CC(CC1CCN(C(=O)CCc2ccc3c(n2)NCCC3)CC1)c1ccc(OC(F)(F)F)cc1 (stereo not drawn) [Cpd 40, 1-[1-oxo-3-(5,6,7,8-tetrahydro-1,8-naphthyridin-2-yl)propyl]-β-[4-(trifluoromethoxy)phenyl]-4-piperidinebutanoic acid] | 0.0052 ± 0.0002 | 24 ± 9.89 | 0.308 ± 0.063
O=C(O)CC(CC1CCN(C(=O)CCc2ccc3c(n2)NCCC3)CC1)c1ccc(-c2ccccc2)c(F)c1 (stereo not drawn) [Cpd 41, β-(2-fluoro[1,1′-biphenyl]-4-yl)-1-[1-oxo-3-(5,6,7,8-tetrahydro-1,8-naphthyridin-2-yl)propyl]-4-piperidinebutanoic acid] | 0.0018 ± 0.001 | 19.3 ± 2.6 | 0.873 ± 0.158
COc1ccc(C(CC(=O)O)CC2CCN(C(=O)CCc3ccc4c(n3)NCCC4)CC2)cc1F (stereo not drawn) [Cpd 42, β-(3-fluoro-4-methoxyphenyl)-1-[1-oxo-3-(5,6,7,8-tetrahydro-1,8-naphthyridin-2-yl)propyl]-4-piperidinebutanoic acid] | 0.0007 ± 0.0003 | 5 ± 0.74 | 0.0189 ± 0.0046
O=C(O)CC(CC1CCN(C(=O)CCc2ccc3c(n2)NCCC3)CC1)c1ccc(Oc2ccccc2)cc1 (stereo not drawn) [Cpd 43, 1-[1-oxo-3-(5,6,7,8-tetrahydro-1,8-naphthyridin-2-yl)propyl]-β-(4-phenoxyphenyl)-4-piperidinebutanoic acid] | 0.0079 ± 0.0007 | 28.8 ± 15.8 | 0.222 ± 0.0885
O=C(O)CC(CC1CCN(C(=O)CCc2ccc3c(n2)NCCC3)CC1)c1cncc2ccccc12 (stereo not drawn) [Cpd 44, β-[[1-[1-oxo-3-(5,6,7,8-tetrahydro-1,8-naphthyridin-2-yl)propyl]-4-piperidinyl]methyl]-4-isoquinolinepropanoic acid] | 0.0022 ± 0.0009 | 5.44 ± 1.1 | 0.002 ± 0.0006
O=C(O)CC(CC1CCN(C(=O)CCc2ccc3c(n2)NCCC3)CC1)c1cccnc1 (stereo not drawn) [Cpd 45, β-[[1-[1-oxo-3-(5,6,7,8-tetrahydro-1,8-naphthyridin-2-yl)propyl]-4-piperidinyl]methyl]-3-pyridinepropanoic acid] | 0.0008 ± 0.0001 | 6.61 ± 2.85 | 0.0017 ± 0.0003
O=C(O)CC(CC1CCN(C(=O)CCc2ccc3c(n2)NCCC3)CC1)c1ccc2c(c1)CCO2 (stereo not drawn) [Cpd 46, β-(2,3-dihydro-5-benzofuranyl)-1-[1-oxo-3-(5,6,7,8-tetrahydro-1,8-naphthyridin-2-yl)propyl]-4-piperidinebutanoic acid] | 0.0035 ± 0.0006 | 13.6 ± 1.33 | 0.0659 ± 0.0171

More lines, now with the values ahead:

IC50 (Human αvβ3) [µM] | IC50 (GP IIb/IIIa) [µM] | IC50 (human purified αVβ5) [µM] | Structure (SMILES)
0.0014 ± 0.0007 | 1.47 ± 0.37 | 0.0046 ± 0.0017 | COc1ncc(C(CC(=O)O)CC2CCN(C(=O)CCc3ccc4c(n3)NCCC4)CC2)c(OC)n1 (stereo not drawn) [Cpd 47, 2,4-dimethoxy-β-[[1-[1-oxo-3-(5,6,7,8-tetrahydro-1,8-naphthyridin-2-yl)propyl]-4-piperidinyl]methyl]-5-pyrimidinepropanoic acid]
0.001 ± 0.0005 | 1.21 ± 0.2 | 0.0033 ± 0.0014 | COc1ncc(C(CC(=O)O)CC2CCN(C(=O)CCc3ccc4c(n3)NCCC4)CC2)cn1 (stereo not drawn) [Cpd 48, 2-methoxy-β-[[1-[1-oxo-3-(5,6,7,8-tetrahydro-1,8-naphthyridin-2-yl)propyl]-4-piperidinyl]methyl]-5-pyrimidinepropanoic acid]
0.0018 ± 0.0005 | 0.16 ± 0.02 | 0.0895 ± 0.0255 | O=C(O)CC(CCC1CCN(C(=O)c2cccc(NC3=NCC(O)CN3)c2)CC1)c1cnc2ccccc2c1 (stereo not drawn) [Cpd 49, β-[2-[1-[3-[(1,4,5,6-tetrahydro-5-hydroxy-2-pyrimidinyl)amino]benzoyl]-4-piperidinyl]ethyl]-3-quinolinepropanoic acid]
0.0156 ± 0.0044 | 0.19 ± 0.04 | 0.676 | O=C(O)CC(CCC1CCN(C(=O)c2cccc(NC3=NCCCC3)c2)CC1)c1cnc2ccccc2c1 (stereo not drawn) [Cpd 50, β-[2-[1-[3-[(3,4,5,6-tetrahydro-2-pyridinyl)amino]benzoyl]-4-piperidinyl]ethyl]-3-quinolinepropanoic acid]
0.003 ± 0.0006 | 0.48 ± 0.01 | 0.169 ± 0.019 | O=C(O)CC(CCC1CCN(C(=O)CCc2ccc3c(n2)NCCC3)CC1)c1cnc2ccccc2c1 (stereo not drawn) [Cpd 51, β-[2-[1-[1-oxo-3-(5,6,7,8-tetrahydro-1,8-naphthyridin-2-yl)propyl]-4-piperidinyl]ethyl]-3-quinolinepropanoic acid]
0.0298 ± 0.0137 | 0.94 ± 0.05 | 0.138 ± 0.0415 | O=C(O)CC(CCC1CCN(C(=O)c2cccc(NC3=NCCCC3)c2)CC1)c1ccc2c(c1)OCO2 (stereo not drawn) [Cpd 53, β-(1,3-benzodioxol-5-yl)-1-[3-[(3,4,5,6-tetrahydro-2-pyridinyl)amino]benzoyl]-4-piperidinepentanoic acid]
0.0017 ± 0.0005 | 0.24 | 0.0347 ± 0.0117 | O=C(O)CC(CCC1CCN(C(=O)c2cccc(NC3=NCC(O)CN3)c2)CC1)c1ccc2c(c1)OCO2 (stereo not drawn) [Cpd 54, β-(1,3-benzodioxol-5-yl)-1-[3-[(1,4,5,6-tetrahydro-5-hydroxy-2-pyrimidinyl)amino]benzoyl]-4-piperidinepentanoic acid]
0.095 | 15.6 | 0.737 | O=C(O)CC(CCC1CCN(C(=O)Cc2ccc3c(n2)NCCC3)CC1)c1ccc2c(c1)OCO2 (stereo not drawn) [Cpd 55, β-(1,3-benzodioxol-5-yl)-1-[(5,6,7,8-tetrahydro-1,8-naphthyridin-2-yl)acetyl]-4-piperidinepentanoic acid]
0.0019 ± 0.0006 | 39.1 ± 0.785 | 0.0245 ± 0.0065 | O=C(O)CC(CC1CCN(C(=O)CCc2ccc3c(n2)NCCC3)CC1)c1ccc2ccccc2c1 (stereo not drawn) [Cpd 56, β-(2-naphthalenyl)-1-[1-oxo-3-(5,6,7,8-tetrahydro-1,8-naphthyridin-2-yl)propyl]-4-piperidinebutanoic acid]
0.0045 ± 0.0007 | 37.5 ± 31.6 | 0.0253 ± 0.0073 | O=C(O)CCCC1CCN(C(=O)CCc2ccc3c(n2)NCCC3)CC1 [Cpd 61]
0.413 | 35.6 | > 1 | CCOC(=O)CCCC1CCN(C(=O)CCc2ccc3c(n2)NCCC3)CC1 [Cpd 68, 4-[1-(3-5,6,7,8-Tetrahydro-[1,8]naphthyridin-2-yl-propionyl)-piperidin-4-yl]-butyric acid ethyl ester]
